Oligonucleotides are written 5' to 3', each unit as a sugar letter and its base; * is a phosphorothioate linkage, no mark a phosphodiester; rarer units and linkages stand in square brackets, end groups in braces. Plain capitals give the bases only. e = 2'-O-(2-methoxyethyl) (MOE); [5mC] = 5-methylcytosine; d = 2'-deoxy (DNA)
Each substance was assayed on human CD40 mRNA (assay: Inhibition of CD40 mRNA levels by oligonucleotides (real-time RT-PCR)). Conditions: 2'-MOE gapmers, 18 nucleotides, phosphorothioate throughout; averaged from three experiments.
Assay type: cell-based
Set-up: concentration or dose not given beside the values
Method: When cells reach about 80% confluency, they are treated with oligonucleotide. For cells grown in 96-well plates, wells are washed once with 200 μl Opti-MEM-1 reduced-serum medium (Life Technologies) and then treated with 130 μl of Opti-MEM-1 containing 3.75 μg/ml LIPOFECTIN (Life Technologies) and the desired oligonucleotide at a final concentration of 150 nM. After 4 hours of treatment, the medium was replaced with fresh medium. Cells were harvested 16 hours after oligonucleotide treatment.
Poly(A)+ mRNA was isolated according to Miura et al. (Clin. Chem., 1996, 42, 1758). Briefly, for cells grown on 96-well plates, growth medium was removed from the cells and each well was washed with 200 ul cold PBS. 60 ul lysis buffer (10 mM Tris-HCl, pH 7.6, 1 mM EDTA, 0.5 M NaCl, 0.5% NP-40, 20 mM vanadyl-ribonucleoside complex) was added to each well, the plate was gently agitated and then incubated at room temperature for five minutes. 55 ul of lysate was transferred to Oligo d(T) coated 96 well plates (AGCT Inc., Irvine, Calif.). Plates were incubated for 60 minutes at room temperature, washed 3 times with 200 ul of wash buffer (10 mM Tris-HCl pH 7.6, 1 mM EDTA, 0.3 M NaCl). After the final wash, the plate was blotted on paper towels to remove excess wash buffer and then air-dried for 5 minutes. 60 ul of elution buffer (5 mM Tris-HCl pH 7.6), preheated to 70° C. was added to each well, the plate was incubated on a 90° hot plate for 5 minutes, and the eluate then transferred to a fresh 96 well plate. Cells grown on 100 mm or other standard plates may be treated similarly, using appropriate volumes of all solutions.
Quantitation of CD40 mRNA levels was determined by real-time PCR (RT-PCR) using the ABI PRISM 7700 Sequence Detection System (PE-Applied Biosystems, Foster City, Calif.) according to manufacturer's instructions. This is a closed-tube, non-gel-based, fluorescence detection system which allows high-throughput quantitation of polymerase chain reaction (PCR) products in real-time.
As opposed to standard PCR, in which amplification products are quantitated after the PCR is completed, products in RT-PCR are quantitated as they accumulate. This is accomplished by including in the PCR reaction an oligonucleotide probe that anneals specifically between the forward and reverse PCR primers, and contains two fluorescent dyes. A reporter dye (e.g., JOE or FAM, PE-Applied Biosystems, Foster City, Calif.) is attached to the 5′ end of the probe and a quencher dye (e.g., TAMRA, PE-Applied Biosystems, Foster City, Calif.) is attached to the 3′ end of the probe. When the probe and dyes are intact, reporter dye emission is quenched by the proximity of the 3′ quencher dye. During amplification, annealing of the probe to the target sequence creates a substrate that can be cleaved by the 5′-exonuclease activity of Taq polymerase.
With each cycle, additional reporter dye molecules are cleaved from their respective probes, and the fluorescence intensity is monitored at regular (six-second) intervals by laser optics built into the ABI PRISM 7700 Sequence Detection System. In each assay, a series of parallel reactions containing serial dilutions of mRNA from untreated control samples generates a standard curve that is used to quantitate the percent inhibition after antisense oligonucleotide treatment of test samples.
RT-PCR reagents were obtained from PE-Applied Biosystems, Foster City, Calif. RT-PCR reactions were carried out by adding 25 ul PCR cocktail (1× Taqman buffer A, 5.5 mM MgCl2, 300 uM each of dATP, dCTP and dGTP, 600 uM of dUTP, 100 nM each of forward primer, reverse primer, and probe, 20 U RNAse inhibitor, 1.25 units AmpliTaq Gold, and 12.5 U MuLV reverse transcriptase) to 96 well plates containing 25 ul poly(A) mRNA solution. […]
“19247 (antisense eG*eT*eG*e[5mC]*dC*dA*dG*dC*dC*dT*dT*dC*dT*dT*e[5mC]*eA*e[5mC]*eA) [compound 19247]” was tested, and the “% Inhibition (Inhibition of CD40 mRNA Levels by Chimeric Phosphorothioate Oligonucleotides)” value (from here on “% Inhibition”) was 61.32%.
With “19216 (DNA eG*e[5mC]*eA*eA*dG*dC*dA*dG*dC*dC*dC*dC*dA*dG*eA*eG*eG*eA; antisense) [compound 19216]” the “% Inhibition” value was 65.80%.
With “19243 (antisense eG*eT*eG*eT*dC*dT*dG*dT*dT*dT*dC*dT*dG*dA*eG*eG*eT*eG) [compound 19243]” the “% Inhibition” value was 63.32%.
With “19290 (e[5mC]*eT*eG*eT*dC*dT*dC*dT*dC*dC*dT*dG*dC*dA*e[5mC]*eT*eG*eA; antisense) [compound 19290]” the “% Inhibition” value was 25.68%.
With “19227 (antisense e[5mC]*eT*eG*eT*dC*dC*dT*dG*dG*dC*dT*dG*dG*dC*eA*e[5mC]*eA*eA) [compound 19227]” the “% Inhibition” value was 24.37%.
In the case of “19237 (antisense e[5mC]*eT*eG*eG*dT*dG*dG*dC*dA*dG*dT*dG*dT*dG*eT*e[5mC]*eT*e[5mC]) [compound 19237]”, the “% Inhibition” value is reported as 70.32%.
With “19240 (antisense e[5mC]*eT*eA*eG*dG*dT*dT*dG*dG*dG*dG*dT*dC*dG*e[5mC]*eA*eG*eT) [compound 19240]” the “% Inhibition” value was 36.32%.
“19261 (eG*eA*eT*eG*dA*dC*dA*dC*dA*dT*dT*dG*dG*dA*eG*eA*eA*eG; antisense) [compound 19261]” was tested, and the “% Inhibition” value was 13.81%.
For “19254 (antisense eG*eA*eA*eA*dC*dC*dC*dC*dT*dG*dT*dA*dG*dC*eA*eA*eT*e[5mC]) [compound 19254]”, the “% Inhibition” value was 0.00%.
For “19235 (antisense eT*eT*e[5mC]*eA*dC*dC*dG*dC*dA*dA*dG*dG*dA*dA*eG*eG*e[5mC]*eA) [compound 19235]”, the “% Inhibition” value was 61.03%.
With “19267 (e[5mC]*eA*eG*eG*dT*dC*dT*dT*dT*dG*dG*dT*dC*dT*e[5mC]*eA*e[5mC]*eA; antisense) [compound 19267]” the “% Inhibition” value was 63.95%.
With “19232 (antisense e[5mC]*eA*eG*eT*dG*dA*dA*dC*dT*dC*dT*dG*dT*dG*e[5mC]*eA*eG*eT) [compound 19232]” the “% Inhibition” value was 40.26%.
In the case of “19220 (DNA eT*e[5mC]*eT*eG*dG*dA*dT*dG*dG*dA*dC*dA*dG*dC*eG*eG*eT*e[5mC]; antisense) [compound 19220]”, the “% Inhibition” value is reported as 78.71%.
In the case of “19264 (eG*eT*e[5mC]*e[5mC]*dA*dA*dG*dG*dG*dT*dG*dA*dC*dA*eT*eT*eT*eT; antisense) [compound 19264]”, the “% Inhibition” value is reported as 70.99%.
“19291 (eG*eG*eT*eG*dC*dA*dG*dC*dC*dT*dC*dA*dC*dT*eG*eT*e[5mC]*eT; antisense) [compound 19291]” was tested, and the “% Inhibition” value was 76.27%.
With “19211 (DNA e[5mC]*e[5mC]*eA*eG*dG*dC*dG*dG*dC*dA*dG*dG*dA*dC*e[5mC]*eA*e[5mC]*eT; antisense) [compound 19211]” the “% Inhibition” value was 75.71%.
For “19285 (eT*eG*eG*eA*dG*dC*dA*dG*dC*dA*dG*dT*dG*dT*eT*eG*eG*eA; antisense) [compound 19285]”, the “% Inhibition” value was 15.17%.
In the case of “19228 (antisense e[5mC]*eT*e[5mC]*eA*dC*dC*dA*dG*dT*dT*dT*dC*dT*dG*eT*e[5mC]*e[5mC]*eT) [compound 19228]”, the “% Inhibition” value is reported as 22.30%.
“19255 (antisense eG*eT*eA*eT*dC*dA*dG*dA*dA*dA*dC*dC*dC*dC*eT*eG*eT*eA) [compound 19255]” was tested, and the “% Inhibition” value was 36.13%.

Same assay, conditions: oligodeoxynucleotides with phosphorothioate backbones throughout; averages from three experiments
For “18675 (DNA dT*dC*dG*dA*dA*dA*dG*dC*dA*dG*dA*dT*dG*dA*dC*dA*dC*dA; antisense) [compound 18675]”, the “% INHIB. (Inhibition of CD40 mRNA Levels by Phosphorothioate Oligodeoxynucleotides)” value was 0.00%.
“18689 (DNA dA*dC*dC*dA*dG*dC*dA*dC*dC*dA*dA*dG*dA*dG*dG*dA*dT*dG; antisense) [compound 18689]” was tested, and the “% INHIB. (Inhibition of CD40 mRNA Levels by Phosphorothioate Oligodeoxynucleotides)” value was 0.00%.
For “18655 (DNA dG*dT*dG*dT*dC*dT*dG*dT*dT*dT*dC*dT*dG*dA*dG*dG*dT*dG; antisense) [compound 18655]”, the “% INHIB. (Inhibition of CD40 mRNA Levels by Phosphorothioate Oligodeoxynucleotides)” value was 0.00%.
In the case of “18664 (DNA dA*dA*dG*dC*dC*dG*dG*dG*dC*dG*dA*dG*dC*dA*dT*dG*dA*dG; antisense) [compound 18664]”, the “% INHIB. (Inhibition of CD40 mRNA Levels by Phosphorothioate Oligodeoxynucleotides)” value is reported as 0.00%.
“18643 (DNA dA*dC*dT*dC*dT*dG*dT*dG*dC*dA*dG*dT*dC*dA*dC*dT*dC*dA; antisense) [compound 18643]” was tested, and the “% INHIB. (Inhibition of CD40 mRNA Levels by Phosphorothioate Oligodeoxynucleotides)” value was 0.00%.
For “18657 (DNA dA*dC*dA*dG*dG*dT*dG*dC*dA*dG*dA*dT*dG*dG*dT*dG*dT*dC; antisense) [compound 18657]”, the “% INHIB. (Inhibition of CD40 mRNA Levels by Phosphorothioate Oligodeoxynucleotides)” value was 0.00%.
With “18677 (DNA dC*dA*dC*dA*dG*dC*dT*dT*dG*dT*dC*dC*dA*dA*dG*dG*dG*dT; antisense) [compound 18677]” the “% INHIB. (Inhibition of CD40 mRNA Levels by Phosphorothioate Oligodeoxynucleotides)” value was 0.00%.
With “18692 (DNA dG*dG*dG*dT*dT*dC*dC*dT*dG*dC*dT*dT*dG*dG*dG*dG*dT*dG; antisense) [compound 18692]” the “% INHIB. (Inhibition of CD40 mRNA Levels by Phosphorothioate Oligodeoxynucleotides)” value was 0.00%.
In the case of “18700 (DNA dC*dG*dG*dT*dT*dG*dG*dC*dA*dT*dC*dC*dA*dT*dG*dT*dA*dA; antisense) [compound 18700]”, the “% INHIB. (Inhibition of CD40 mRNA Levels by Phosphorothioate Oligodeoxynucleotides)” value is reported as 0.00%.
For “18671 (DNA dG*dA*dC*dT*dG*dG*dG*dC*dA*dG*dG*dG*dC*dT*dC*dG*dC*dA; antisense) [compound 18671]”, the “% INHIB. (Inhibition of CD40 mRNA Levels by Phosphorothioate Oligodeoxynucleotides)” value was 2.71%.
With “18687 (DNA dG*dG*dG*dA*dT*dC*dA*dC*dC*dA*dC*dC*dA*dG*dG*dG*dC*dT; antisense) [compound 18687]” the “% INHIB. (Inhibition of CD40 mRNA Levels by Phosphorothioate Oligodeoxynucleotides)” value was 0.00%.
With “18632 (DNA dT*dC*dT*dG*dG*dA*dT*dG*dG*dA*dC*dA*dG*dC*dG*dG*dT*dC; antisense) [compound 18632]” the “% INHIB. (Inhibition of CD40 mRNA Levels by Phosphorothioate Oligodeoxynucleotides)” value was 0.00%.
In the case of “18644 (DNA dC*dA*dG*dT*dG*dA*dA*dC*dT*dC*dT*dG*dT*dG*dC*dA*dG*dT; antisense) [compound 18644]”, the “% INHIB. (Inhibition of CD40 mRNA Levels by Phosphorothioate Oligodeoxynucleotides)” value is reported as 5.30%.
For “18636 (DNA dC*dA*dC*dA*dA*dA*dG*dA*dA*dC*dA*dG*dC*dA*dC*dT*dG*dA; antisense) [compound 18636]”, the “% INHIB. (Inhibition of CD40 mRNA Levels by Phosphorothioate Oligodeoxynucleotides)” value was 0.00%.
In the case of “18639 (DNA dC*dT*dG*dT*dC*dC*dT*dG*dG*dC*dT*dG*dG*dC*dA*dC*dA*dA; antisense) [compound 18639]”, the “% INHIB. (Inhibition of CD40 mRNA Levels by Phosphorothioate Oligodeoxynucleotides)” value is reported as 4.99%.
With “18658 (DNA dT*dT*dC*dA*dC*dA*dG*dG*dT*dG*dC*dA*dG*dA*dT*dG*dG*dT; antisense) [compound 18658]” the “% INHIB. (Inhibition of CD40 mRNA Levels by Phosphorothioate Oligodeoxynucleotides)” value was 0.00%.

From patent US20050142581A1, “Microrna as ligands and target molecules” (priority 2003, published 2005)
